From EP0222155A1, “5-Fluorouracil derivatives” (TERUMO KABUSHIKI KAISHA trading as TERUMO CORPORATION, priority 1985, dated 1987) come the findings set out here.

Structures are written as SMILES. Like-named read-outs stand apart in the source and are kept apart here.

The test system of one series is P388 cells. The experiment in a line: Antitumor activity: increase in life survival of mice transplanted i.p. with P388 cells. Format: in vivo, CDF₁ mice. Conditions: for ILS (%): intraperitoneally once a day for five days, P388 in CDF₁ mice. As to the method:
CDF₁ mice (male, 5 weeks old) were intraperitoneally transplanted with P388 cells at a dose of 1 x 10⁶ cells/mouse.
From the next day of the transplantation, a test compound of the invention in the form of 0.5% carboxymethylcellulose suspension was intraperitoneally administered once a day for consecutive five days. Percent increase in life survival was determined: [formula]

For a further series, the system named is platelet aggregation. The experiment in a line: Platelet aggregation-inhibitory activity in platelet-rich plasma. Format: cell-based, rabbit. Conditions: Oryctolagus cuniculus. As to the method:
From rabbit carotid […] was drawn blood (9 volumes) by means of a syringe containing 3.8% aqueous sodium citrate (1 volume). The blood was centrifuged to obtain platelet-rich plasma (PRP: 550,000/µl). Platelet aggregation-inhibitory activity of a compound of the invention was measure using as an aggregation-inducing agent arachidonic acid or collagen. 50%-inhibition concentration (IC₅₀) against the platelet aggregation caused by arachidonic acid (80 µM) and collagen (30 µg/ml) is shown in Table 2 for representative compounds according to the invention.

The nature of series [1]: Acute toxicity test, oral administration. To be noted: mouse, in vivo, ICR male mice (7 weeks old), read-out: LD₅₀. The text has this:
An acute toxicity test was run with ICR male mice (7 weeks old) by an oral administration.

Setting [2] is: aggregation caused by arachidonic acid (80 µM), rabbit PRP, read-out: 50%-Inhibition concentration, Arachidonic acid.
Where [3] appears, read: aggregation caused by collagen (30 µg/ml), rabbit PRP, read-out: 50%-Inhibition concentration, Collagen.

As to `CC/C=C\C/C=C\C/C=C\CCCCCCCC(=O)OC(C)n1cc(F)c(=O)[nH]c1=O` (stereo not drawn) [Example 1, 1-(α-9,12,15-octadecatrienoyloxy-α-methyl)-methyl-5-fluorouracil], the “ILS (%)” value was determined as 24.6% in the series with P388 cells (Dose 10 mg/kg/day), 46.8% with P388 cells (Dose 30 mg/kg/day) and 80.5% in the series with P388 cells (Dose 100 mg/kg/day). The IC50 amounted to 65 µM in the series on platelet aggregation (setting [2]) and 340 µM with platelet aggregation (setting [3]).
`O=c1[nH]cc(F)c(=O)[nH]1` [Example 5-FU, 5-Fluorouracil]: the “ILS (%)” value is given as 65.2% with P388 cells (Dose 10 mg/kg/day), 27.4% in the series with P388 cells (Dose 30 mg/kg/day) and -24.8% in the series with P388 cells (Dose 40 mg/kg/day). Further, in the series with P388 cells (Dose 100 mg/kg/day as stated in the text), the “survival days compared with control mice (in words)” value is reported as “survival days shorter than those for control mice”. Also, the IC50 with platelet aggregation (read-out: 50%-Inhibition concentration, Arachidonic acid) is greater than 1000 µM; with platelet aggregation (read-out: 50%-Inhibition concentration, Collagen), greater than 1000 µM. The LD50 in series [1] was 309 mg/kg.
For the compound `CC/C=C\C/C=C\C/C=C\CCCCCCCC(=O)OC(CC)n1cc(F)c(=O)[nH]c1=O` (stereo not drawn) [Example 2, 1-(α-9,12,15-octadecatrienoyloxy-α-ethyl)methyl-5-fluorouracil], the entries for the “ILS (%)” value in the series with P388 cells (Dose 10 mg/kg/day), with P388 cells (Dose 30 mg/kg/day) and in the series with P388 cells (Dose 100 mg/kg/day) were 27.2%, 39.7% and 73.8%, respectively. The figures for the IC50 in the series on platelet aggregation (setting [2]) and in the series on platelet aggregation (setting [3]) were 57 µM and 530 µM, respectively.
In the case of `CC/C=C\C/C=C\C/C=C\C/C=C\C/C=C\CCCC(=O)OC(C)n1cc(F)c(=O)[nH]c1=O` (stereo not drawn) [Example 3, 1-(α-5,8,11,14,17-eicosapentaenoyloxy-α-methyl)methyl-5-fluorouracil], the “ILS (%)” value with P388 cells (Dose 10 mg/kg/day) turned out to be 26.8%; with P388 cells (Dose 30 mg/kg/day) it was 49.2%; with P388 cells (Dose 100 mg/kg/day) it was 82.1%. Moreover, the values for the IC50 in the series with platelet aggregation (setting [2]) and in the series with platelet aggregation (setting [3]) were 32 µM and 140 µM, respectively.
